Reference: article PMC7113773 (Antiviral Research, 2014)
Counter-ions that a name gives are not always drawn. Like-named read-outs stand apart in the source and are kept apart here.

How the values were obtained:
[1] = system: A/Hong Kong/8/68 (H3N2); experiment: organism not typed; type: cell-based, influenza A virus; conditions: for EC50: read-out: EC50 for influenza virus A/Hong Kong/8/68
[2] = in vitro; conditions: dog
[3] = system: A/Puerto Rico/8/34 (H1N1; PR8); experiment: organism not typed; type: cell-based, influenza A virus; conditions: for EC50: read-out: EC50 for influenza virus A/Puerto Rico/8/34
[4] = system: pore-forming glycoprotein perforin; conditions: previous study, ref Lena et al., 2008; cited from earlier work
[5] = system: HIV; experiment: MTT-based antiviral assay, HIV in MT-4 cells; type: cell-based, human immunodeficiency virus; conditions: maximum concentration of 100 μM, data not shown
[6] = system: HSV; experiment: MTT-based antiviral assay, HSV in Vero cells; type: cell-based, herpes simplex virus; conditions: maximum concentration of 100 μM, data not shown
[7] = system: PR8 virus; type: cell-based, influenza A virus
[8] = system: PR8 virus NP and HA protein; type: cell-based, influenza A virus; conditions: 11, 33 and 100 μM, 24 h at 35 °C
[9] = system: CoxB; experiment: MTT-based antiviral assay, CoxB in HeLa cells; type: cell-based, Coxsackie B virus; conditions: maximum concentration of 100 μM, data not shown
[10] = system: FECV; experiment: MTT-based antiviral assay, FECV in CrFK cells; type: cell-based, feline coronavirus; conditions: maximum concentration of 100 μM, data not shown
[11] = system: B/Lee/40; type: cell-based, influenza B virus; conditions: for EC50: read-out: EC50 for influenza virus B/Lee/40
[12] = system: PR8 virus; type: cell-based, influenza A virus; remark: listed apart in the source
[13] = system: MDCK cells; conditions: for CC50: read-out: CC50 for MDCK cells, mock-infected MDCK cells, day 3, MTT
[14] = system: influenza A/H1N1, A/H3N2 and B viruses; experiment: CPE reduction assay / screen, stated for the three influenza viruses together; type: cell-based; conditions: even at 100 μM

| SMILES | EC50 ([1]; MDCK, 72 h) [µM] | CC50 [2] [µM] | EC50 ([3]; MDCK, 72 h) [µM] | other results |
| --- | --- | --- | --- | --- |
| NC12CC3CC(CC(C3)C1)C2 [Amantadine hydrochloride, reference compound] | 2.8 ± 1.7 | > 100 | > 100 |  |
| Cc1cc2c(c(=O)[nH]1)C(=O)O/C2=C\c1c[nH]c2ccc(F)cc12 [Compound 15b, (Z)-1-((5-Fluoro-1H-indol-3-yl)methylene)-6-methylfuro[3,4-c]pyridine-3,4(1H,5 H)-dione] | 26.8 ± 16.2 | > 900 | 22.5 ± 10.8 |  |
| Cc1cc2c(c(=S)n1C)C(=O)O/C2=C\c1cc2cc(F)ccc2[nH]1 [Compound 15c, (Z)-1-((5-Fluoro-1H-indol-2-yl)methylene)-5,6-dimethyl-4-thioxo-4,5-dihydrofuro[3,4-c]pyridin-3(1H)-one] | > 100 | > 900 | > 100 |  |
| O=C1O/C(=C\c2c[nH]c3ccc(F)cc23)c2cc(-c3ccccc3)[nH]c(=S)c21 [Compound 15d, (Z)-1-((5-Fluoro-1H-indol-3-yl)methylene)-6-phenyl-4-thioxo-4,5-dihydrofuro[3,4-c]pyridin-3(1H)-one] | 32.5 ± 13.3 | > 900 | 63.8 ± 25.2 |  |
| Cc1cc2c(c(=S)[nH]1)C(=O)O/C2=C\c1c[nH]c2ccccc12 [Compound 15e, (Z)-1-((1H-Indol-3-yl)methylene)-6-methyl-4-thioxo-4,5-dihydrofuro[3,4-c]pyridi n-3(1H)-one] | > 100 | > 900 | > 100 | inhibitory effect on cell lysis induced by perforin [4]: inactive |
| Cc1cc2c(c(=S)[nH]1)C(=O)O/C2=C\c1csc2ccccc12 [Compound 15f, (Z)-1-(Benzo[b]thiophen-3-ylmethylene)-6-methyl-4-thioxo-4,5-dihydrofuro[3,4-c]pyridin-3(1H)-one] | 28.8 ± 6.2 | > 900 | 26.1 ± 6 | inhibitory effect on cell lysis induced by perforin [4]: active |
| Cc1cc2c(c(=S)[nH]1)C(=O)O/C2=C\c1cc2ccccc2s1 [Compound 15g, (Z)-1-(Benzo[b]thiophen-2-ylmethylene)-6-methyl-4-thioxo-4,5-dihydrofuro[3,4-c]pyridin-3(1H)-one] | 10.5 | > 900 | 16.1 | antiviral activity against HIV [5]: no antiviral activity was detected; antiviral activity against HSV [6]: no antiviral activity was detected; plaque titer (infectious viral titers) [7]: significantly inhibited; viral protein level (NP, HA) in cells [8]: Reduction of the influenza viral protein level; antiviral activity against CoxB [9]: no antiviral activity was detected; inhibitory effect on cell lysis induced by perforin [4]: active; antiviral activity against FECV [10]: no antiviral activity was detected; S.I. (selectivity index, CC50/EC50), B/Lee/40 [11]: 18.4 ± 12.8 (>48.9); S.I. (selectivity index, CC50/EC50), A/Hong Kong/8/68 [1]: 10.5 ± 5.0 (>85.7); vRNA levels in culture supernatants [12]: significantly inhibited; S.I. (selectivity index, CC50/EC50), A/Puerto Rico/8/34 [3]: 16.1 ± 6.0 (>55.9) |
| Cc1cc2c(c(=S)[nH]1)C(=O)O/C2=C\c1sc2ccccc2c1C [Compound 15h, (Z)-6-Methyl-1-((3-methylbenzo[b]thiophen-2-yl)methylene)-4-thioxo-4,5-dihydrofuro[3,4-c]pyridin-3(1H)-one] | > 100 | > 900 | > 100 |  |
| Cc1c(/C=C2\OC(=O)c3c2cc(C)n(C)c3=S)sc2ccccc12 [Compound 15i, (Z)-5,6-Dimethyl-1-((3-methylbenzo[b]thiophen-2-yl)methylene)-4-thioxo-4,5-dihydrofuro[3,4-c]pyridin-3(1H)-one] | > 100 | > 900 | > 100 |  |
| Cc1cc2c(c(=S)[nH]1)C(=O)O/C2=C\c1ccsc1 [Compound 15j, (Z)-6-Methyl-1-(thiophen-3-ylmethylene)-4-thioxo-4,5-dihydrofuro[3,4-c]pyridi n-3(1H)-one] | 6.2 | > 900 | 5 | viral protein level (NP, HA) in cells [8]: Reduction of the influenza viral protein level; inhibitory effect on cell lysis induced by perforin [4]: none; S.I. (selectivity index, CC50/EC50), B/Lee/40 [11]: 5.9 ± 2.0 (>152.5); S.I. (selectivity index, CC50/EC50), A/Hong Kong/8/68 [1]: 6.2 ± 3.1 (>145.2); toxicity to MDCK cells ([13]; at 900 μM, uninfected MDCK cells): no toxicity; S.I. (selectivity index, CC50/EC50), A/Puerto Rico/8/34 [3]: 5.0 ± 1.0 (>180.0) |
| Cc1cc2c(c(=O)[nH]1)C(=O)O/C2=C\c1ccsc1 [Compound 15k, (Z)-6-Methyl-1-(thiophen-3-ylmethylene)furo[3,4-c]pyridine-3,4(1H,5H)-dione] | > 19.8 | 19.8 ± 8.2 | > 19.8 |  |
| O=C1O/C(=C\c2ccsc2)c2cc(-c3ccccc3)[nH]c(=S)c21 [Compound 15l, (Z)-6-Penyl-1-(thiophen-3-ylmethylene)-4-thioxo-4,5-dihydrofuro[3,4-c]pyridin-3(1H)-one] |  |  |  | EC50 [11]: > 100 µM; EC50 [1]: 27.1 ± 5.8 µM; CC50 [13]: > 900 µM; EC50 [3]: > 100 µM |
| Cc1cc2c(c(=S)[nH]1)C(=O)O/C2=C\c1ccoc1 [Compound 15m, (Z)-1-(Fran-3-ylmethylene)-6-methyl-4-thioxo-4,5-dihydrofuro[3,4-c]pyridin-3(1H)-one] |  |  |  | inhibitory effect on cell lysis induced by perforin [4]: none; EC50 [11]: 16.3 ± 8.5 µM; EC50 [1]: 34.1 ± 10 µM; CC50 [13]: > 900 µM; EC50 [3]: 21.4 ± 12.6 µM |
| Cc1cc2c(c(=O)[nH]1)C(=O)O/C2=C\c1ccoc1 [Compound 15n, (Z)-1-(Furan-3-ylmethylene)-6-methylfuro[3,4-c]pyridine-3,4(1H,5H)-dione] | > 61.9 | 61.9 ± 10.7 | > 61.9 |  |
| Cc1cc2c(c(=S)[nH]1)C(=O)O/C2=C\c1c[nH]cn1 [Compound 15o, (Z)-1-((1H-imidazol-4-yl)methylene)-6-methyl-4-thioxo-4,5-dihydrofuro[3,4-c]pyridin-3(1H)-one] | > 100 | > 900 | > 100 | anti-influenza activity [14]: no anti-influenza activity |
| Cc1cc2c(c(=S)[nH]1)C(=O)O/C2=C\c1ncc[nH]1 [Compound 15p, (Z)-1-((1H-Imidazol-2-yl)methylene)-6-methyl-4-thioxo-4,5-dihydrofuro[3,4-c]pyridin-3(1H)-one] | > 100 | > 900 | > 100 | anti-influenza activity [14]: no anti-influenza activity |
| O=C1O/C(=C\c2cccs2)c2cc(-c3ccccc3)[nH]c(=S)c21 [Compound 15r, (Z)-6-Phenyl-1-(thiophen-2-ylmethylene)-4-thioxo-4,5-dihydrofuro[3,4-c]pyridin-3(1H)-one] | 15.1 ± 3.8 | > 900 | 28.9 ± 12.6 |  |
| Cc1cc2c(c(=S)[nH]1)C(=O)O/C2=C\c1sccc1C [Compound 15s, (Z)-6-Methyl-1-((3-methylthiophen-2-yl)methylene)-4-thioxo-4,5-dihydrofuro[3,4-c]pyridin-3(1H)-one] | 12.7 | > 900 | 17.6 | S.I. (selectivity index, CC50/EC50), B/Lee/40 [11]: 14.0 ± 7.4 (>64.3); S.I. (selectivity index, CC50/EC50), A/Hong Kong/8/68 [1]: 12.7 ± 8.2 (>70.9); S.I. (selectivity index, CC50/EC50), A/Puerto Rico/8/34 [3]: 17.6 ± 11.0 (>51.1) |
| Cc1cc2c(c(=S)[nH]1)C(=O)O/C2=C\c1ccc(C)s1 [Compound 15t, (Z)-6-Methyl-1-((5-methylthiophen-2-yl)methylene)-4-thioxo-4,5-dihydrofuro[3,4-c]pyridin-3(1H)-one] | 12.2 | > 900 | 8 | inhibitory effect on cell lysis induced by perforin [4]: active; S.I. (selectivity index, CC50/EC50), B/Lee/40 [11]: 9.6 ± 3.5 (>93.8); S.I. (selectivity index, CC50/EC50), A/Hong Kong/8/68 [1]: 12.2 ± 2.9 (>73.8); S.I. (selectivity index, CC50/EC50), A/Puerto Rico/8/34 [3]: 8.0 ± 3.6 (>112.5) |
| CCc1ccc(/C=C2\OC(=O)c3c2cc(C)[nH]c3=S)s1 [Compound 15u, (Z)-1-((5-Ethylthiophen-2-yl)methylene)-6-methyl-4-thioxo-4,5-dihydrofuro[3,4-c]pyridin-3(1H)-one] | 32.6 ± 10.2 | > 900 | 31.7 ± 21.7 |  |
| Cc1cc2c(c(=S)[nH]1)C(=O)O/C2=C\c1cc(Br)cs1 [Compound 15v, (Z)-1-((4-Bromothiophen-2-yl)methylene)-6-methyl-4-thioxo-4,5-dihydrofuro[3,4-c]pyridin-3(1H)-one] | 47.1 ± 18.7 | > 900 | 63.7 ± 36 |  |
| Cc1cc2c(c(=S)[nH]1)C(=O)O/C2=C\c1ccc(Br)s1 [Compound 15w, (Z)-1-((5-Bromothiophen-2-yl)methylene)-6-methyl-4-thioxo-4,5-dihydrofuro[3,4-c]pyridin-3(1H)-one] | > 100 | > 900 | > 100 |  |
| Cc1ccsc1/C=C1\OC(=O)c2c1cc(C)n(C)c2=S [Compound 15x, (Z)-5,6-Dimethyl-1-((3-methylthiophen-2-yl)methylene)-4-thioxo-4,5-dihydrofuro[3,4-c]pyridin-3(1H)-one] | 11.7 | > 900 | 12.1 | S.I. (selectivity index, CC50/EC50), B/Lee/40 [11]: 8.0 ± 3.6 (>112.5); S.I. (selectivity index, CC50/EC50), A/Hong Kong/8/68 [1]: 11.7 ± 2.7 (>76.9); S.I. (selectivity index, CC50/EC50), A/Puerto Rico/8/34 [3]: 12.1 ± 9.5 (>74.4) |
| NC(=O)c1ncn([C@@H]2O[C@H](CO)[C@@H](O)[C@H]2O)n1 [Ribavirin, ribavirin, reference compound] | 20.2 ± 2.4 |  | 18.8 ± 4.3 |  |
